Active and inactive are the calls of the source. Rule as the data show it, for most assays here: actives have a measured IC50 and inactives only a lower limit.
Legend:
[1] = system: HEK293; assay: inhibition of NOD1-driven NF-kB reporter – cell-based, luminescence, uHTS, primary screen (AID 1578); type: functional; conditions: Homo sapiens
[2] = system: HEK293; assay: cells; type: functional, cell-based; conditions: Homo sapiens
[3] = system: HEK293; assay: cells; type: functional, cell-based; conditions: Homo sapiens; remark: listed apart in the source
[4] = system: HEK293; assay: NOD2 signaling inhibitors in MDP-stimulated cells, cell-based, uHTS, luminescence (AID 2001); type: functional; conditions: Homo sapiens
[5] = biological target: Tumor necrosis factor (Homo sapiens, UniProt P01375); assay: analog potency on TNFa NF-kB signaling – cell-based, revised, SAR follow-up (AID 2337); type: functional
[6] = biological target: Nucleotide-binding oligomerization domain-containing protein 1 (Homo sapiens, UniProt Q9Y239); assay: blockers of NOD1 pathway activity – revised, SAR follow-up (AID 2333); type: functional
[7] = system: HEK293; assay: cells; conditions: Homo sapiens
[8] = biological target: T1, Aminopeptidase N (Plasmodium falciparum FcB1/Columbia, UniProt O96935); assay: malaria alanyl aminopeptidase activity blockers – biochemical, fluorogenic H-Leu-NHMec substrate, 1536-well (AID 1445); parameters: species or system Plasmodium falciparum 3D7, 3D7
T1 sequence (O96935 whole entry): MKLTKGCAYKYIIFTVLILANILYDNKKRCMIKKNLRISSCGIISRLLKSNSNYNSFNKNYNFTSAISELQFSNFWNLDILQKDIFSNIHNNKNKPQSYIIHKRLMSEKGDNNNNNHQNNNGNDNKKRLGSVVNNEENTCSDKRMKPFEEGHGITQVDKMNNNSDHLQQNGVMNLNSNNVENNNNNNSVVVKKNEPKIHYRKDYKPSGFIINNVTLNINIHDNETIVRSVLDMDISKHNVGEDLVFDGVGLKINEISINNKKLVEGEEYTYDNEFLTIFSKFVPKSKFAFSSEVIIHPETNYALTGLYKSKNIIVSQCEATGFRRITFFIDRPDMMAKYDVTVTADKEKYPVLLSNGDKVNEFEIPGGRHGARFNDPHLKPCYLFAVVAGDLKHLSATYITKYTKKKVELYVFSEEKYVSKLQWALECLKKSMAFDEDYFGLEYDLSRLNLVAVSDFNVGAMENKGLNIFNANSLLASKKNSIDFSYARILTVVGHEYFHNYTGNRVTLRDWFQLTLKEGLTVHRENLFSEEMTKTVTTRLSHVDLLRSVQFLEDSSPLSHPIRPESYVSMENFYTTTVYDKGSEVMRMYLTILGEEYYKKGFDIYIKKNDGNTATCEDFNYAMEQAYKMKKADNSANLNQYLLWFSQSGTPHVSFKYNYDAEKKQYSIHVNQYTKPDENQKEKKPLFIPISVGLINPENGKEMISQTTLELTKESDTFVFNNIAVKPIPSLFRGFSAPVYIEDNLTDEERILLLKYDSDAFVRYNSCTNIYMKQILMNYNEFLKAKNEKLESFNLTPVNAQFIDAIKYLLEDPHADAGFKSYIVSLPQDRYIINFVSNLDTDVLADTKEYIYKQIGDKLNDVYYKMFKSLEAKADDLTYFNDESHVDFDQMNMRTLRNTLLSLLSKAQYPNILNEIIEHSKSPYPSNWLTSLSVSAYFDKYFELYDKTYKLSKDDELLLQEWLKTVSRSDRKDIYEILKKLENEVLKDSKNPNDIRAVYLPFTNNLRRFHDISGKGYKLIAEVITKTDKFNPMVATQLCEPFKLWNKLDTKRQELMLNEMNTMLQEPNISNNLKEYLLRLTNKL

[9] = biological target: Intestinal-type alkaline phosphatase (Mus musculus, UniProt P24822); assay: PubChem AID 488874; type: functional
[10] = biological target: T2, Intestinal-type alkaline phosphatase (Homo sapiens, UniProt P09923); assay: inhibition of human intestinal alkaline phosphatase – biochemical, luminescent, uHTS hits, set 2, dose response (AID 488793); type: functional
[11] = biological target: T2, Intestinal-type alkaline phosphatase; assay: Dose Response confirmation of uHTS hits from a small molecule inhibitors of human intestinal alkaline phosphatase via a luminescent assay. [Related pubchem assays (depositor defined):AID2544, AID2574]; type: functional
[12] = biological target: T3, Alkaline phosphatase, tissue-nonspecific isozyme (Homo sapiens, UniProt P05186); assay: inhibition of tissue-nonspecific alkaline phosphatase – biochemical, dose response (AID 488882); type: functional
T3 sequence (P05186 whole entry): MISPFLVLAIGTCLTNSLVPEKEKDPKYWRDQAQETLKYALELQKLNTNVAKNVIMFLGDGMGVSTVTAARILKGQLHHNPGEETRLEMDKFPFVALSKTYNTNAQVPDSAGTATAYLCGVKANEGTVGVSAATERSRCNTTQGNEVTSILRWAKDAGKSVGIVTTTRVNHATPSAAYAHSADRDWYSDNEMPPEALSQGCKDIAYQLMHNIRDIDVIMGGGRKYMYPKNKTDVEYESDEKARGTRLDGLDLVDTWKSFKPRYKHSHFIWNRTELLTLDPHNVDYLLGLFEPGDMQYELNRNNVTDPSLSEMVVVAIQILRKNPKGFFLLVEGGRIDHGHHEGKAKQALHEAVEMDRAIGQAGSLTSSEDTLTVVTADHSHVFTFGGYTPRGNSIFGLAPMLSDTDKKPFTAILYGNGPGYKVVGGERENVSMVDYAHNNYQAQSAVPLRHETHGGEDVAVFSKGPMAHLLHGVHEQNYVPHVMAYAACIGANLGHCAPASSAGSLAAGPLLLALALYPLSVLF

[13] = biological target: Heat shock protein HSP 90-alpha (Homo sapiens, UniProt P07900); type: functional, organism-based
[14] = biological target: 26S proteasome non-ATPase regulatory subunit 14 (Homo sapiens, UniProt O00487); assay: inhibition of proteasome subunit RPN11 – biochemical, fluorescence polarization, uHTS hits, confirmation (AID 602368); type: functional
[15] = biological target: 72 kDa type IV collagenase (Homo sapiens, UniProt P08253); assay: Dose Response validation of uHTS RPN11 inhibitor hits using a MMP-2 Fluorescence assay.; type: functional
[16] = biological target: Prothrombin (Bos taurus, UniProt P00735); assay: thrombin protease inhibitors – biochemical, fluorescence polarization, uHTS hits, dose response (AID 602369); type: functional
[17] = biological target: Eukaryotic translation initiation factor 4H (Homo sapiens, UniProt Q15056); assay: inhibitors of translation initiation factor eIF4H – SAR follow-up (AID 435011); type: functional
[18] = biological target: T4, Polyadenylate-binding protein 1 (Homo sapiens, UniProt P11940); assay: PABP inhibition in translation initiation, SAR follow-up (AID 435018); type: functional
[19] = biological target: T4, Polyadenylate-binding protein 1; assay: SAR analysis for the identification of translation initiation inhibitors (PABP) via an Electrophoretic Mobility Shift Dose Response Assay. [Related pubchem assays (depositor defined):AID2012, AID2014, AID2030]; type: functional
[20] = biological target: FAD-linked sulfhydryl oxidase ALR (Homo sapiens, UniProt P55789); assay: ALR-catalysed DTT oxidation blockers – biochemical, H2O2 detection, luminescence, cherry-pick, dose response (AID 493248)
[21] = biological target: SUMO E1/E2 (Homo sapiens, UniProt P63279+Q9UBE0+Q9UBT2); assay: SAR analysis of SUMOylation using HTRF in an in-Vitro dose response assay. [Related pubchem assays (depositor defined):AID2006, AID2011, AID2018, AID2069, AID2658]; type: functional
[22] = biological target: T5, Voltage-gated N-type calcium channel alpha-1B subunit/Amyloid beta A4 precursor protein-binding family A member 1 (Homo sapiens, UniProt Q00975+Q02410); assay: disruptors of Mint-PDZ/N-type channel peptide interaction – biochemical, HTRF, set 2, SAR follow-up (AID 434980); type: functional
[23] = biological target: T5, Voltage-gated N-type calcium channel alpha-1B subunit/Amyloid beta A4 precursor protein-binding family A member 1; assay: disruptors of Mint-PDZ/N-type channel peptide interaction – biochemical, HTRF, SAR follow-up (AID 2489); type: functional

T5 sequence (Q00975 whole entry): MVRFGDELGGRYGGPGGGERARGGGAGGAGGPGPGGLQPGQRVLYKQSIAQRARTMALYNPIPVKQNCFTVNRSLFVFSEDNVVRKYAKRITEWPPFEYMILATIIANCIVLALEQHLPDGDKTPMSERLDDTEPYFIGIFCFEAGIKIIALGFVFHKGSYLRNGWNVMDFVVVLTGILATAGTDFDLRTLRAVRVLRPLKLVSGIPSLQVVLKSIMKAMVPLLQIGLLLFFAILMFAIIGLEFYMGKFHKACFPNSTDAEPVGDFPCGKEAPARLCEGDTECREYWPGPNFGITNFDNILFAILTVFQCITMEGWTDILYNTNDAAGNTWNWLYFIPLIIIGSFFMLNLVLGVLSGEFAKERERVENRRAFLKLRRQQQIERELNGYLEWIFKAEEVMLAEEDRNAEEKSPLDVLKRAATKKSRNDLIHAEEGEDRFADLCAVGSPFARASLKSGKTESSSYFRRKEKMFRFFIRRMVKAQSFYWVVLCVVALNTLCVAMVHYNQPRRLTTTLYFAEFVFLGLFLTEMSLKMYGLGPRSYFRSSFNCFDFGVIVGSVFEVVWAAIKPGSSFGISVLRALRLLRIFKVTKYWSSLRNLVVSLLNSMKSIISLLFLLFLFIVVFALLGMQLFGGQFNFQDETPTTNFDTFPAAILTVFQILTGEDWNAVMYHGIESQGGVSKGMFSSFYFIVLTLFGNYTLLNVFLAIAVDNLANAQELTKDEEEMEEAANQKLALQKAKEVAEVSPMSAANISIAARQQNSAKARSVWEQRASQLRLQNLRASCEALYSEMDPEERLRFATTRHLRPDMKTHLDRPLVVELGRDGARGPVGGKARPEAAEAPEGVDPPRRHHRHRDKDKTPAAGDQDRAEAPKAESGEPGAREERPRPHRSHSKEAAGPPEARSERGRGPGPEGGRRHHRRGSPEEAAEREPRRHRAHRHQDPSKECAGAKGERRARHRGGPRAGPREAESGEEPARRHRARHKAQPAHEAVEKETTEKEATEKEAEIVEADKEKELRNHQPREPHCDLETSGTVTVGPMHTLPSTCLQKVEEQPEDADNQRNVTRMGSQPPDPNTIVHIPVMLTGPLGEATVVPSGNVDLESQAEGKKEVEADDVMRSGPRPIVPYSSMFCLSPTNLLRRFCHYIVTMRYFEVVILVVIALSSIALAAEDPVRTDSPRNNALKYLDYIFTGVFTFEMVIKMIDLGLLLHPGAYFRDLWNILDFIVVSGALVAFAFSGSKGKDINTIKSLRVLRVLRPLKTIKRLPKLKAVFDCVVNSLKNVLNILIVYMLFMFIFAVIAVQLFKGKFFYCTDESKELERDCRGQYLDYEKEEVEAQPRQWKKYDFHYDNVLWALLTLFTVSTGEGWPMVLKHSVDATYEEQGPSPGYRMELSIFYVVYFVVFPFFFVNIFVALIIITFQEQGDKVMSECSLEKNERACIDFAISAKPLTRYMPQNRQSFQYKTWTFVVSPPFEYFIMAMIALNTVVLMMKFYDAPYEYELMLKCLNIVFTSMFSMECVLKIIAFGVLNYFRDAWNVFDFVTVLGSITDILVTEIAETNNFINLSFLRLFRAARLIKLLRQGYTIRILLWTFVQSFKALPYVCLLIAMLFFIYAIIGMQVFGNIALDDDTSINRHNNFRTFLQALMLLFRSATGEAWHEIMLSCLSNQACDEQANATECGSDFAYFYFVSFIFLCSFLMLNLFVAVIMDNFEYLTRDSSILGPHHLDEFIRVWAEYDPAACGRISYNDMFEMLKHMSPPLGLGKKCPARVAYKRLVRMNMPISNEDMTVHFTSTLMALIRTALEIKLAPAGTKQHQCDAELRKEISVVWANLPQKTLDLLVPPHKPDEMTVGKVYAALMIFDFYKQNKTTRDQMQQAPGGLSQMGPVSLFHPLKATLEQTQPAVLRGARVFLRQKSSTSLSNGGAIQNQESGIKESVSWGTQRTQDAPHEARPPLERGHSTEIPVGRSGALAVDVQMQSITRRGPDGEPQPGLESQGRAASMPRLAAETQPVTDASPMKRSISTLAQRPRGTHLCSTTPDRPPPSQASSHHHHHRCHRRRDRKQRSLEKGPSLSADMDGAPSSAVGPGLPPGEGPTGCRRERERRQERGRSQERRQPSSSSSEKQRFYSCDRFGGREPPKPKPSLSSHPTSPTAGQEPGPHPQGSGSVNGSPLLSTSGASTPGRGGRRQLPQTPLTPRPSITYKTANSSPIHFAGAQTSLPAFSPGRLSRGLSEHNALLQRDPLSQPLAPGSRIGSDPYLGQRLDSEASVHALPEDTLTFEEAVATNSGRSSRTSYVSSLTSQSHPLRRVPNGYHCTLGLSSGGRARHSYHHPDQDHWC
T5 sequence (Q02410 whole entry): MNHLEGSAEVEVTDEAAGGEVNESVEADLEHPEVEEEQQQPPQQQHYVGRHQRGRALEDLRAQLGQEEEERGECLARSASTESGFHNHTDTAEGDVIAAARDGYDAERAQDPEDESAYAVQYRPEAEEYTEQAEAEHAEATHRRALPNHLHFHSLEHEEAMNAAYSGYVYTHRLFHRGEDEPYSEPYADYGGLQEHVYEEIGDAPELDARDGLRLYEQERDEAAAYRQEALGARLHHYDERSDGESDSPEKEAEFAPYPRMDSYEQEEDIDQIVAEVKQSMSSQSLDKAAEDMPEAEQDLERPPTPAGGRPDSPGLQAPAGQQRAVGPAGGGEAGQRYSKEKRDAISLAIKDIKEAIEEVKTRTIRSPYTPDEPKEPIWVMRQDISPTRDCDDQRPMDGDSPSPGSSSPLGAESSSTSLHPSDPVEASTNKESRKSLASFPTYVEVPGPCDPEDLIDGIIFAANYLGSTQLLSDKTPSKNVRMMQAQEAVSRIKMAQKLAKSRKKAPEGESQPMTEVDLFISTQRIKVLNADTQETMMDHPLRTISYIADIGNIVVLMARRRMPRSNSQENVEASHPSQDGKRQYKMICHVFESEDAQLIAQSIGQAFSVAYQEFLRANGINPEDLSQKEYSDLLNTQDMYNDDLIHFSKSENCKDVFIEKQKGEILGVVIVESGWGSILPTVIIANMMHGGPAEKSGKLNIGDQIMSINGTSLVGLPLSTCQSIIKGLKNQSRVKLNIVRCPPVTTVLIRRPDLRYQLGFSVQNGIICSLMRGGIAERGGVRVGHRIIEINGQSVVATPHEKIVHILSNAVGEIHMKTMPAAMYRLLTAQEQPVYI
T4 sequence (P11940 whole entry): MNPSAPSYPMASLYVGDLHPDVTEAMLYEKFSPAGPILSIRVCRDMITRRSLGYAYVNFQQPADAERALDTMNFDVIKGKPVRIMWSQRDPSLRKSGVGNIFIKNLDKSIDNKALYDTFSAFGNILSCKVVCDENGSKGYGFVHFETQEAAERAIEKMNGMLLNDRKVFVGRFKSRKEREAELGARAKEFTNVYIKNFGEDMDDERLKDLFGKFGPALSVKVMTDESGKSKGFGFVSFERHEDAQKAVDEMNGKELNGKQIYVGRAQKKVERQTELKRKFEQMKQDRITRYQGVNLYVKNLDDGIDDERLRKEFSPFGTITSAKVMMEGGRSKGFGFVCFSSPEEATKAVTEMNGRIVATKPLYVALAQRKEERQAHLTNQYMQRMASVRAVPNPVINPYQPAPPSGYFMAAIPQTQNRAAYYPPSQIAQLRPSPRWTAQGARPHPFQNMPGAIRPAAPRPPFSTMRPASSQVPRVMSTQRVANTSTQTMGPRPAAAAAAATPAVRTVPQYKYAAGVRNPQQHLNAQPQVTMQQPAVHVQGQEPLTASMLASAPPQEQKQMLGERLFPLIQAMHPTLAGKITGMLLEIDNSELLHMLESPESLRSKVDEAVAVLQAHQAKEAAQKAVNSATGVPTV
T2 sequence (P09923 whole entry): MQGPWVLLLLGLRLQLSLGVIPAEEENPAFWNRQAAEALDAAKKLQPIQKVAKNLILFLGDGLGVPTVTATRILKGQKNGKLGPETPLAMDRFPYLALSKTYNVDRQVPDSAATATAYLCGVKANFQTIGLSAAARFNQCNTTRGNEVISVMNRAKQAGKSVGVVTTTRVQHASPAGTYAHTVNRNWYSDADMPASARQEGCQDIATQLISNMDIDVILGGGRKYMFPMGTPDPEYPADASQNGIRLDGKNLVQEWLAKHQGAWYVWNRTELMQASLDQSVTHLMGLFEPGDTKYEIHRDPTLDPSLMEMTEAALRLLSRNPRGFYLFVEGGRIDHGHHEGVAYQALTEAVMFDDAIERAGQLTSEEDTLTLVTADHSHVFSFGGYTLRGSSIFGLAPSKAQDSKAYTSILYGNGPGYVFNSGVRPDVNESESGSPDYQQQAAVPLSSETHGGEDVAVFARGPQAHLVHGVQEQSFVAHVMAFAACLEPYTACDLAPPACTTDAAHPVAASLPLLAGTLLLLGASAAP
Chain of Intestinal-type alkaline phosphatase (Mus musculus, UniProt P24822) (P24822 whole entry): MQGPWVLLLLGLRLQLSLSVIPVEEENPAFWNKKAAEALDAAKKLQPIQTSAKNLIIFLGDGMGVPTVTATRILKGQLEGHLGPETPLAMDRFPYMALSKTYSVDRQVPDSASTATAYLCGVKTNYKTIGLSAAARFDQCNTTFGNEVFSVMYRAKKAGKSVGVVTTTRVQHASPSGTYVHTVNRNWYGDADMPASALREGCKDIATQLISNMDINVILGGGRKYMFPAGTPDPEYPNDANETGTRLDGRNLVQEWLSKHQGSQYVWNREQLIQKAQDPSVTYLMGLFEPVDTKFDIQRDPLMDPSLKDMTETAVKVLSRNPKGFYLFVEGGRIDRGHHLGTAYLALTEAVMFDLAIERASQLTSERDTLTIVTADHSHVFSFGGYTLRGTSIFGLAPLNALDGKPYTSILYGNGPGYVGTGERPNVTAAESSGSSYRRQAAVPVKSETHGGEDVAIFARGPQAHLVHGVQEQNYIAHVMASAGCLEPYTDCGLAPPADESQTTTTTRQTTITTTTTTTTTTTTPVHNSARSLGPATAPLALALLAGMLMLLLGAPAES
Chain of FAD-linked sulfhydryl oxidase ALR (P55789 whole entry): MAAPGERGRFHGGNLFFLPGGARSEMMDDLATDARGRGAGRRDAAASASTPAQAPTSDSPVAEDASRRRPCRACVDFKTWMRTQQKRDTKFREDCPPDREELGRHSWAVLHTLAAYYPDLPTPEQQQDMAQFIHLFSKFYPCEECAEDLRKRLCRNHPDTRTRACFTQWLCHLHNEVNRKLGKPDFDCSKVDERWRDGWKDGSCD

For `O=C(Nc1sc2c(c1C(=O)O)CCCC2)c1ccc(Cl)cc1`, which EC50 [1] is on record?
Its EC50 is 6.58 µM (active).

And the IC50 [2]?
The IC50 was > 20 µM (inactive).

And the IC50 [3]?
Its IC50 is > 20 µM (inactive).

And the IC50 [4]?
The IC50 was 16 µM (inactive).

And the IC50 [5]?
Its IC50 is 13.4 µM (active).

And the IC50 [6]?
The IC50 was 2.86 µM (active).

And the IC50 [7]?
The IC50 was > 20 µM (inactive).

`O=C(NN1C(=O)/C(=C/c2ccc(O)c([N+](=O)[O-])c2)SC1=S)c1ccccc1Cl` was tested. Which IC50 [8] did it give?
The IC50 was 71.1 µM (active).

What about the IC50 [9] of the same compound?
Its IC50 is 10.6 µM (active).

And the IC50 [10]?
Its IC50 is 22.9 µM (active).

And the IC50 [11]?
The IC50 was 25.4 µM (inactive).

And the IC50 [12]?
Its IC50 is 29.8 µM (active).

And the AC50 [13]?
Its AC50 is 2.86 µM (active).

What about the IC50 [14] of the same compound?
The IC50 was 39.7 µM (active).

And the IC50 [15]?
The IC50 was 82.1 µM (active).

And the IC50 [16]?
The IC50 was 32 µM (active).

Which results are given for `COc1ccc(N2Cc3cccc(C(=O)NC(C)CCc4ccco4)c3C2=O)cc1` (stereo not drawn)?
IC50 [17]: 5.42 µM (active); IC50 [18]: > 100 µM (inactive); IC50 [19]: 10 µM (active); AC50 [20]: 1.06 µM (active)

For `COc1ccccc1CNC(=O)CCOC(=O)c1cc(-c2ccco2)nc2ccccc12`, which IC50 [21] is on record?
The IC50 was 38.6 µM (active).

What about the IC50 [22] of the same compound?
Its IC50 is 23 µM (active).

And the IC50 [23]?
Its IC50 is > 56.8 µM (inactive).

Reference: ChEMBL document CHEMBL1201862, “PubChem BioAssay data set” (2004)
